For the experiment, the target named is T1, EP1 receptors (Homo sapiens, UniProt P34995).
T1 sequence (P34995 1-402): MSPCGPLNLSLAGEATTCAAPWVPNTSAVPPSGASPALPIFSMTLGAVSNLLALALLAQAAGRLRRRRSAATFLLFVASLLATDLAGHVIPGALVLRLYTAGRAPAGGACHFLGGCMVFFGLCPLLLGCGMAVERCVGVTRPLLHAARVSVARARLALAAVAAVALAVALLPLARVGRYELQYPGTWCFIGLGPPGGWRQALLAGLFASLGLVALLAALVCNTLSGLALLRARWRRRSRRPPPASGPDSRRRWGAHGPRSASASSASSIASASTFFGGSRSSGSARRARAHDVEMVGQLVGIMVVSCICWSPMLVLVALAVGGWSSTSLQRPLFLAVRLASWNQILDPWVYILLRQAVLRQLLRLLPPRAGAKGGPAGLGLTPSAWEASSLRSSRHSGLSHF
The experiment can be described thus: Binding assay for the human prostanoid EP1 receptor (competition with [3H]-PGE2). To be noted: [3H]-PGE2 competition; averages of a number of experiments; read-out: pIC50 value, binding assay for the human prostanoid EP1 receptor (converted). The arrangement: expressed in transfected cells; host or cells: CHO-K1 cells, membrane fraction. As to the method: Competition assay using [^3H]-PGE2.
Compound potencies are determined using a radioligand binding assay. In this assay compound potencies are determined from their ability to compete with tritiated prostaglandin E2 ([^3H]-PGE2) for binding to the human EP1 receptor.
This assay utilises Chinese hamster ovary-K1 (CHO-K1) cells into which a stable vector containing the EP1 cDNA has previously been transfected. Cells are cultured in suitable flasks containing culture medium such as DMEM:F-12 supplemented with 10% v/v foetal calf serum, 2 mM L-glutamine, 0.25 mg/ml geneticin, 10 μg/ml puromycin and 10 μM indomethacin.
Cells are detached from the culture flasks by incubation in calcium and magnesium free phosphate buffered saline containing 1 mM disodium ethylenediaminetetraacetic acid (Na2EDTA) and 10 μM indomethacin for 5 min. The cells are isolated by centrifugation at 250×g for 5mins and suspended in an ice cold buffer such as 50 mM Tris, 1 mM Na2EDTA, 140 mM NaCl, 10 μM indomethacin (pH 7.4). The cells are homogenised using a Polytron tissue disrupter (2×10 s burst at full setting), centrifuged at 48,000×g for 20mins and the pellet containing the membrane fraction is washed (optional) three times by suspension and centrifugation at 48,000×g for 20mins. The final membrane pellet is suspended in an assay buffer such as 10 mM 2-[N-morpholino]ethanesulphonic acid, 1 mM Na2EDTA, 10 mM MgCl2 (pH 6). Aliquots are frozen at […] until required.
For the binding assay the cell membranes, competing compounds and [^3H]-PGE2 (3 nM final assay concentration) are incubated in a final volume of 100 μl for 30 min at 30° C. All reagents are prepared in assay buffer. Reactions are terminated by rapid vacuum filtration over GF/B filters using a Brandell cell harvester. The filters are washed with ice cold assay buffer, dried and the radioactivity retained on the filters is measured by liquid scintillation counting in Packard TopCount scintillation counter.
The data are analysed using non linear curve fitting techniques to determine the concentration of compound producing 50% inhibition of specific binding (IC50).

Some results are limits rather than exact numbers.

As for `NC(=O)c1nc(Cc2cc(Cl)ccc2OCc2ccc(F)cc2F)cs1` [Example 1, 4-[(5-chloro-2-{[(2,4-difluorophenyl)methyl]oxy}phenyl)methyl]-1,3-thiazole-2-carboxamide], the IC50 was not above 1000 nM. Turning to `NC(=O)c1nc(Cc2cc(Cl)ccc2OCc2ccccc2F)cs1` [Example 2, 4-[(5-chloro-2-{[(2-fluorophenyl)methyl]oxy}phenyl)methyl]-1,3-thiazole-2-carboxamide], the IC50 is not above 1000 nM. Regarding `NC(=O)c1nc(Cc2cc(Cl)ccc2OCc2ccccc2Cl)cs1` [Example 3, 4-[(5-chloro-2-{[(2-chlorophenyl)methyl]oxy}phenyl)methyl]-1,3-thiazole-2-carboxamide], the IC50 is not above 1000 nM. As for `NC(=O)c1nc(Cc2cc(Cl)ccc2OCc2c(F)cc(F)cc2F)cs1` [Example 4, 4-[(5-chloro-2-{[(2,4,6-trifluorophenyl)methyl]oxy}phenyl)methyl]-1,3-thiazole-2-carboxamide], the IC50 is not above 1000 nM. On to `NC(=O)c1nc(Cc2cc(Cl)ccc2OCc2ccc(Cl)cc2)cs1` [Example 5, 4-[(5-chloro-2-{[(4-chlorophenyl)methyl]oxy}phenyl)methyl]-1,3-thiazole-2-carboxamide], for which the IC50 was not above 1000 nM. The value for `NC(=O)c1nc(Cc2cc(Cl)ccc2OCc2ccc(F)cc2Cl)cs1` [Example 6, 4-[(5-chloro-2-{[(2-chloro-4-fluorophenyl)methyl]oxy}phenyl)methyl]-1,3-thiazole-2-carboxamide] was not above 1000 nM; that for `NC(=O)c1nc(Cc2cc(Cl)ccc2OCc2c(F)ccc(F)c2F)cs1` [Example 7, 4-[(5-chloro-2-{[(2,3,6-trifluorophenyl)methyl]-oxy}phenyl)methyl]-1,3-thiazole-2-carboxamide] was more than 1000 nM. As to `NC(=O)c1nc(Cc2cc(Cl)ccc2OCc2cc(F)c(F)cc2F)cs1` [Example 8, 4-[(5-chloro-2-{[(2,4,5-trifluorophenyl)methyl]oxy}phenyl)methyl]-1,3-thiazole-2-carboxamide], the IC50 is not above 1000 nM. Consider `O=C(O)c1csc(Cc2cc(Cl)ccc2OCc2ccccc2)n1` [Example 9, 2-({5-chloro-2-[(phenylmethyl)oxy]phenyl}methyl)-1,3-thiazole-4-carboxylicacid], for which the IC50 was not above 31.6 nM. As for `O=C(O)c1csc(Cc2cc(Cl)ccc2OCc2ccccc2F)n1` [Example 10, 2-[(5-chloro-2-{[(2-fluorophenyl)methyl]oxy}phenyl)methyl]-1,3-thiazole-4-carboxylicacid], the IC50 was not above 31.6 nM. Take `O=C(O)c1csc(Cc2cc(Cl)ccc2OCc2ccc(Cl)cc2)n1` [Example 11, 2-[(5-chloro-2-{[(4-chlorophenyl)methyl]oxy}phenyl)methyl]-1,3-thiazole-4-carboxylicacid]: the IC50 was not above 31.6 nM. Consider `O=C(O)c1csc(Cc2cc(Cl)ccc2OCc2ccc(F)cc2)n1` [Example 12, 2-[(5-chloro-2-{[(4-fluorophenyl)methyl]oxy}phenyl)methyl]-1,3-thiazole-4-carboxylicacid], for which the IC50 is not above 31.6 nM.

As for `O=C(O)c1csc(Cc2cc(Cl)ccc2OCc2c(F)cc(F)cc2F)n1` [Example 13, 2-[(5-chloro-2-{[(2,4,6-trifluorophenyl)methyl]oxy}phenyl)methyl]-1,3-thiazole-4-carboxylicacid], the IC50 is not above 31.6 nM.

For the compound `O=C(O)c1csc(Cc2cc(Cl)ccc2OCc2ccc(F)cc2Cl)n1` [Example 14, 2-[(5-chloro-2-{[(2-chloro-4-fluorophenyl)methyl]oxy}phenyl)methyl]-1,3-thiazole-4-carboxylicacid], the IC50 was not above 31.6 nM. As to `O=C(O)c1csc(Cc2cc(Cl)ccc2OCc2ccccc2Cl)n1` [Example 15, 2-[(5-chloro-2-{[(2-chlorophenyl)methyl]oxy}phenyl)methyl]-1,3-thiazole-4-carboxylicacid], the IC50 is not above 31.6 nM. Consider `O=C(O)c1csc(Cc2cc(Cl)ccc2OCc2ccc(F)cc2F)n1` [Example 16, 2-[(5-chloro-2-{[(2,4-difluorophenyl)methyl]oxy}phenyl)methyl]-1,3-thiazole-4-carboxylicacid], for which the IC50 was not above 31.6 nM. The value for `O=C(O)c1csc(Cc2cc(Cl)ccc2OCc2ccc(Cl)cc2Cl)n1` [Example 17, 2-[(5-chloro-2-{[(2,4-dichlorophenyl)methyl]oxy}phenyl)methyl]-1,3-thiazole-4-carboxylicacid] was not above 31.6 nM. For `O=C(O)c1csc(Cc2cc(Cl)ccc2OCc2cc(F)c(F)cc2F)n1` [Example 18, Sodium 2-[(5-chloro-2-{[(2,4,5-trifluorophenyl)methyl]oxy}phenyl)methyl]-1,3-thiazole-4-carboxylate], the IC50 was not above 31.6 nM. As to `O=C(O)c1csc(Cc2cc(Cl)ccc2OCc2c(F)ccc(F)c2F)n1` [Example 19, Sodium 2-[(5-chloro-2-{[(2,3,6-trifluorophenyl)methyl]oxy}phenyl)methyl]-1,3-thiazole-4-carboxylate], the IC50 was not above 1000 nM. For the compound `O=C(O)c1csc(Cc2cc(Cl)ccc2OCc2ccc(F)c(F)c2F)n1` [Example 20, Sodium 2-[(5-chloro-2-{[(2,3,4-trifluorophenyl)methyl]oxy}phenyl)methyl]-1,3-thiazole-4-carboxylate], the IC50 is not above 1000 nM. In the case of `O=C(O)c1csc(Cc2cc(Cl)ccc2OCc2cc(F)c(F)c(F)c2)n1` [Example 21, Sodium 2-[(5-chloro-2-{[(3,4,5-trifluorophenyl)methyl]oxy}phenyl)methyl]-1,3-thiazole-4-carboxylate], the IC50 is not above 1000 nM. As for `O=C(O)c1csc(Cc2cc(Cl)ccc2OCc2ccc(Br)cc2F)n1` [Example 22, Sodium 2-[(2-{[(4-bromo-2-fluorophenyl)methyl]oxy}-5-chlorophenyl)methyl]-1,3-thiazole-4-carboxylate], the IC50 is not above 31.6 nM. For `CC(C)COc1ccc(Cl)cc1Cc1nc(C(=O)O)cs1` [Example 23, Sodium 2-({5-chloro-2-[(2-methylpropyl)oxy}phenyl}methyl)-1,3-thiazole-4-carboxylate], the IC50 is not above 31.6 nM. Consider `O=C(O)c1csc(Cc2cc(C(F)(F)F)ccc2OCc2ccccc2)n1` [Example 24, Sodium 2-{[2-[(phenylmethyl)oxy]-5-(trifluoromethyl)phenyl]methyl}-1,3-thiazole-4-carboxylate], for which the IC50 was not above 31.6 nM. For `O=C(O)c1csc(Cc2cc(C(F)(F)F)ccc2OCc2ccc(F)cc2)n1` [Example 25, Sodium 2-{[2-{[(4-fluorophenyl)methyl]oxy}-5-(trifluoromethyl)phenyl]methyl}-1,3-thiazole-4-carboxylate], the IC50 is not above 1000 nM. Regarding `O=C(O)c1csc(Cc2cc(C(F)(F)F)ccc2OCc2ccc(F)cc2F)n1` [Example 26, Sodium 2-{[2-{[(2,4-difluorophenyl)methyl]oxy}-5-(trifluoromethyl)phenyl]methyl}-1,3-thiazole-4-carboxylate], the IC50 is not above 31.6 nM. As to `O=C(O)c1csc(Cc2cc(Cl)ccc2OCC2CCCC2)n1` [Example 27, Sodium 2-({5-chloro-2-[(cyclopentylmethyl)oxy]phenyl}methyl)-1,3-thiazole-4-carboxylate], the IC50 was not above 31.6 nM. As to `O=C(O)c1csc(Cc2cc(C(F)(F)F)ccc2OCc2ccccc2Br)n1` [Example 28, Sodium 2-{[2-{[(2-bromophenyl)methyl]oxy}-5-(trifluoromethyl)phenyl]methyl}-1,3-thiazole-4-carboxylate], the IC50 was not above 1000 nM.

(Values after US20080207708A1, “Oxazole and Thiazole Compounds and Their Use in the Treatment of Pge2 Mediated Disorders” (GLAXO GROUP LIMITED, priority 2005, published 2008).)
